Measurements: patent US20080228069A1, “Novel Differential Imaging Method” (MEDIPHYSICS, INC., priority 2003, published 2008)

Assays:
[1] = system: SK—N—SH human neuroblastoma cells; conditions: over activity range; cited from earlier work
[2] = cited from earlier work
[3] = system: myocardial uptake of ^123I mIBG; experiment: ^123I mIBG imaging with and without amitryptaline; format: in vivo, human
Method: 4 patients with movement disorders and aged between 66 and 75 were selected for this study. Neurological examination raised the differential diagnosis between essential tremor and Parkinson's disease. Prior to the study, none of the patients was taking any medication known to interfere with mIBG uptake. In all patients two ^123I mIBG scans were performed, one of which was performed after administration of a single oral dose of 25 mg amitryptaline one hour prior to ^123I mIBG administration. The imaging protocol was carried out for both scans as described in the following paragraphs.
The patients were treated with 200-500 mg of potassium perchlorate 30 minutes before injection of ^123I mIBG. […]
Anterior planar images of the thorax were obtained at 15 minutes and at 4 hours after ^123I mIBG injection with the subject in a supine position. The gamma camera (GE Millenium) was equipped with a low-energy, parallel-hole, general purpose collimator, and a 20% energy window on 159 KeV if ^123I is used.
SPECT was performed with collection of 32 projections of 30-60 seconds each, acquired over 180° orbit, with 3°-6° angle interval in a 64×64 matrix starting in the 45° right anterior oblique projection and finishing in the 45° left posterior oblique projection.
Studies were reconstructed using a Butterworth filtered backprojection technique. Three tomographic images were obtained from the SPECT study, i.e. vertical long axis slices, short axis slices, and horizontal long axis slices. Bull's eye polar map was generated from the apical to the basal short axis slices to show relative tracer distribution in the myocardium. Reconstruction was performed without attenuation and scatter correction.
The parameters used for quantification of myocardial ^123I-mIBG activity were heart to mediastinum ratio (HMR) and myocardial washout rate (WR). […] The WR is calculated by dividing the product of […] by myocardial counts at 15 minutes and multiplying by 100. […]

Compound | percent binding to SK—N—SH human neuroblastoma cells [1] | uptake in mouse heart and adrenals [2] | myocardial uptake of ^123I mIBG when amitryptaline was administered before ^123I mIBG ([3]; FIG. 3, two of the four subjects, single oral dose of 25 mg amitryptaline one hour prior to ^123I mIBG) | difference in the myocardial uptake of ^123I mIBG following administration of amitryptaline ([3]; FIG. 4, the other two subjects, single oral dose of 25 mg amitryptaline one hour prior to ^123I mIBG) | uptake of ^123I mIBG in the stress image ([3]; half of the patients imaged (4 patients), adrenergic interfering agent amitryptaline)
NC(N)=NCc1ccc(F)c(I)c1 [^18F-FIBG] | remained constant over a 3-log activity range | Specific and high uptake | – | – | –
CN(C)CCC=C1c2ccccc2CCc2ccccc21 [amitryptaline] | – | – | marked decrease | no notable difference | Reduced uptake
